The target of one assay is T1, SUMO E1 (Homo sapiens, UniProt Q9UBT2).
T1 sequence (Q9UBT2 1-640): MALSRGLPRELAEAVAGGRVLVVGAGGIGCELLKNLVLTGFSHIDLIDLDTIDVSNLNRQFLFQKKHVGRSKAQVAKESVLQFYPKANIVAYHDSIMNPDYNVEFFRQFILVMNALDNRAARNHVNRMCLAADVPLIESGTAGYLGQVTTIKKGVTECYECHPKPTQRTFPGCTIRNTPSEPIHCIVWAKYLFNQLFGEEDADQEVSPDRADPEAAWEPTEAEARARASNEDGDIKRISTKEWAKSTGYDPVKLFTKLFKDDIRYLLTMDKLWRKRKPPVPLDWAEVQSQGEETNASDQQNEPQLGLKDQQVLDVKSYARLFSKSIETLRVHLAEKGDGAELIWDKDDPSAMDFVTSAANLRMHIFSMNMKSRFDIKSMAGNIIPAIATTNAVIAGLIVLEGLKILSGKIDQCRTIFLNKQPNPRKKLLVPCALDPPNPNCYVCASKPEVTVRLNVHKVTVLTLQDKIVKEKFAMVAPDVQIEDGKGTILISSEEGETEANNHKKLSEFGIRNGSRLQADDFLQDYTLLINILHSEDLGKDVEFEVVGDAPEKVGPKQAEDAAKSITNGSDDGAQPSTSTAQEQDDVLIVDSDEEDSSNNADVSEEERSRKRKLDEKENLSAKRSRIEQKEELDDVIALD
T1 sequence (Q9UBE0 1-346 partner): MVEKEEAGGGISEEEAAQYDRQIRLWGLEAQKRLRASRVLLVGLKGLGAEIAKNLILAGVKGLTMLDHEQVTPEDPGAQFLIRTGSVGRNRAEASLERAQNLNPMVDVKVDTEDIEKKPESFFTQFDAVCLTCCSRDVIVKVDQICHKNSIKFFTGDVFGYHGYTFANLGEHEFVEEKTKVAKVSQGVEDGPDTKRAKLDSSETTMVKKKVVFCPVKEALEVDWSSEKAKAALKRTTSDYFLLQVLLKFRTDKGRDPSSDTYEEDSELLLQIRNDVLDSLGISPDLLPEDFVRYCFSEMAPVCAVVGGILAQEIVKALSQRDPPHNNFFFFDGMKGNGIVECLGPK
The assay is described as follows: SUMO E1 inhibition: UBC9-SUMO1 conjugation by SDS gel electrophoresis. The settings on record: read-out: SUMO E1 percent inhibition of adduct formation; for inhibition at 27 µM: 27 uM compound; for inhibition at 1 µM: 1 uM compound; for inhibition at 9 µM: 9 uM compound; for inhibition at 3 µM: 3 uM compound; for inhibition at 6 µM: 6 uM compound. Format: biochemical. Summed up: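 SUMO E1 was preincubated with compound for a set time, then UBC9, SUMO1 and ATP were added and incubated at 37 °C. After Laemmli quench, UBC9-SUMO1 adduct was resolved by SDS gel; percent inhibition from band intensity versus no-compound control, reported with compound concentration (μM) and preincubation time (min).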

The target in another assay is T2, Atg7 (Homo sapiens, UniProt O95352).
T2 sequence (O95352 1-703): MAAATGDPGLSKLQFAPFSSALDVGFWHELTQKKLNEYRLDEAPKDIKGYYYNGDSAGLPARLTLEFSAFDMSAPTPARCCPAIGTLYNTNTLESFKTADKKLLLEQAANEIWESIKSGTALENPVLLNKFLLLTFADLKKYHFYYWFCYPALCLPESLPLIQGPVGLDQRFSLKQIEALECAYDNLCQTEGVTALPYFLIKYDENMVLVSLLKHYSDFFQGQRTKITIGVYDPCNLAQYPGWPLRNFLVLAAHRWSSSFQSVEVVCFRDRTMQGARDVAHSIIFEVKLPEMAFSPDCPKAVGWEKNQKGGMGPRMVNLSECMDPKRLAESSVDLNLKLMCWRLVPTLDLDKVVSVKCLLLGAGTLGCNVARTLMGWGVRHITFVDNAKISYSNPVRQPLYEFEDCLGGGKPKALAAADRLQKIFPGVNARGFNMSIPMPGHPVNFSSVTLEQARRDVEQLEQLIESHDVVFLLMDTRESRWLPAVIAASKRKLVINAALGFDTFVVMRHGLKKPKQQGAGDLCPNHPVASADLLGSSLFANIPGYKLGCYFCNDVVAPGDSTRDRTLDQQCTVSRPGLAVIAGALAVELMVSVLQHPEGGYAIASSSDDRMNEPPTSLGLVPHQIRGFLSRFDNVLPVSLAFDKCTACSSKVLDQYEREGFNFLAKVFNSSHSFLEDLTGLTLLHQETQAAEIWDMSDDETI
The assay is described as follows: Atg7 activating enzyme (E1) inhibition. In kind it is biochemical. The settings on record: 25 uM compound, 60 min preincubation; read-out: Atg7 percent inhibition of adduct formation. The method in brief: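 Compounds were assessed for their ability to inhibit the Atg7 activating enzyme (E1) following previously published methods and protocols. The E1 enzyme was preincubated with compound, and activity was expressed as the percent inhibition of adduct formation, reported together with the compound concentration in uM and the E1–compound preincubation time in minutes.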

Where two headings read alike, the source gives them in different places.

The text below walks through data of patent publication US12398151B2, “Sumo inhibitor compounds and uses thereof” (SUVALENT THERAPEUTICS, INC., priority 2019, dated 2025).

Turning to `C=CC(=O)N1Cc2sc(CCC)cc2[C@@H](c2ccccc2C)C1` [Compound 110], the inhibition at 27 µM on SUMO E1 (30 min preincubation) was 30%. Moreover, the inhibition at 25 µM on Atg7 was found to be 80%.

Regarding `C=CC(=O)N1Cc2cc(Br)sc2[C@@H](c2ccccc2C)C1` [Compound 111], the inhibition at 27 µM on SUMO E1 (30 min preincubation) was found to be 80%. Further, the inhibition at 25 µM on Atg7 is under 1%.

As to `C=CC(=O)N1Cc2sc(Cl)cc2[C@@H](c2ccccc2C)[C@H]1C` [Compound 112], on SUMO E1 (30 min preincubation), the inhibition at 27 µM was determined as 95%. The inhibition at 25 µM at Atg7 was under 1%.

For `C=CC(=O)N1Cc2sc(Cl)cc2[C@@H](c2ccccc2Br)C1` [Compound 113], the inhibition at 1 µM on SUMO E1 (30 min preincubation) stood at 95%. Besides, at Atg7, the inhibition at 25 µM is under 1%.

As to `C=CC(=O)N1Cc2sc(Cl)cc2[C@@H](c2ccccc2F)C1` [Compound 114], the inhibition at 1 µM on SUMO E1 (30 min preincubation) amounted to 100%. Moreover, the inhibition at 25 µM on Atg7 is under 1%.

Consider `Cc1ccccc1[C@H]1CN(C(=O)CCl)Cc2sc(Cl)cc21` [Compound 115], for which, on SUMO E1 (30 min preincubation), the inhibition at 27 µM was 80%. For the same compound, at Atg7, the inhibition at 25 µM was determined as 100%.

Take `C=CC(=O)N1Cc2ccsc2[C@@H](c2ccccc2)C1` [Compound 116]: the inhibition at 27 µM on SUMO E1 (30 min preincubation) was under 1%. Further, the inhibition at 25 µM on Atg7 was under 1%.

For `C=CC(=O)N[C@H]1Cc2ccsc2[C@@H](c2ccccc2C)C1` [Compound 117], the inhibition at 27 µM at SUMO E1 (30 min preincubation) was under 1%. For the same compound, at Atg7, the inhibition at 25 µM is under 1%.

As to `Cc1ccccc1[C@H]1CN(C(=O)c2cccnc2Cl)Cc2sc(Cl)cc21` [Compound 118], the inhibition at 27 µM at SUMO E1 (30 min preincubation) was under 1%. Also, the inhibition at 25 µM on Atg7 is under 1%.

With `Cc1ccccc1[C@H]1CN(C(=O)/C=C/c2ccccn2)Cc2sc(Cl)cc21` [Compound 119], the inhibition at 27 µM on SUMO E1 (30 min preincubation) is under 1%. For the same compound, the inhibition at 25 µM on Atg7 was under 1%.

For `O=C(/C=C/C(F)(F)F)N1Cc2sc(Cl)cc2[C@@H](c2ccccc2F)C1` [Compound 120], the inhibition at 1 µM at SUMO E1 (30 min preincubation) was determined as 100%. On Atg7, the inhibition at 25 µM is under 1%.

On to `Cc1ccccc1[C@H]1CN(C(=O)/C=C/c2ccc(C#N)cc2)Cc2sc(Cl)cc21` [Compound 121], for which the inhibition at 27 µM on SUMO E1 (30 min preincubation) is under 1%. Besides, the inhibition at 25 µM on Atg7 is under 1%.

`Cc1ccccc1[C@H]1CN(C(=O)/C=C/C(F)F)Cc2sc(Cl)cc21` [Compound 122]: at SUMO E1 (30 min preincubation), the inhibition at 1 µM worked out at 100%. The inhibition at 25 µM at Atg7 was under 1%.

With `C=CC(=O)N1Cc2sccc2[C@@H](C2CCCCC2)C1` [Compound 123], the inhibition at 9 µM on SUMO E1 (30 min preincubation) is 40%. Besides, on Atg7, the inhibition at 25 µM was under 1%.

Regarding `C=CC(=O)N1Cc2cc(Cl)sc2[C@@H](c2ccccc2C)C1` [Compound 127], the inhibition at 27 µM on SUMO E1 (20 min preincubation) was 95%. Also, at Atg7, the inhibition at 25 µM is under 1%.

On to `C=CC(=O)N[C@H]1Cc2sccc2[C@@H](c2ccccc2Cl)C1` [Compound 130], for which, on SUMO E1 (30 min preincubation), the inhibition at 3 µM is under 1%. Also, at Atg7, the inhibition at 25 µM is under 1%.

Consider `C=CC(=O)N1Cc2sc(Cl)cc2[C@@H](c2ccccc2-c2ccccc2)C1` [Compound 133], for which the inhibition at 1 µM at SUMO E1 (30 min preincubation) came out at 95%. For the same compound, the inhibition at 25 µM on Atg7 is under 1%.

In the case of `C=CC(=O)N1Cc2sc(Cl)cc2[C@@H]([C@@H](CC)C(=O)O)C1` [Compound 134], on SUMO E1 (15 min preincubation), the inhibition at 27 µM was under 1%. Besides, on Atg7, the inhibition at 25 µM was under 1%.

In the case of `C=CC(=O)N1Cc2sc(Cl)cc2[C@@H](c2ccccc2C2CC2)C1` [Compound 135], on SUMO E1 (30 min preincubation), the inhibition at 27 µM turned out to be 95%. Moreover, on Atg7, the inhibition at 25 µM was under 1%.

In the case of `C=CC(=O)N1Cc2sc(Cl)cc2[C@@H](c2ccccc2-c2ccncc2)C1` [Compound 136], the inhibition at 3 µM on SUMO E1 (30 min preincubation) was 100%. Also, at Atg7, the inhibition at 25 µM is under 1%.

Take `C=CC(=O)N1CC[C@H](c2ccccc2)c2cc(Cl)sc2C1` [Compound 137]: on SUMO E1 (30 min preincubation), the inhibition at 27 µM was under 1%. Moreover, at Atg7, the inhibition at 25 µM was under 1%.

In the case of `C=CC(=O)N1Cc2sc(Cl)cc2[C@@H](c2ccccc2CC2CCOCC2)C1` [Compound 138], the inhibition at 9 µM on SUMO E1 (15 min preincubation) was 50%. Moreover, the inhibition at 25 µM at Atg7 was under 1%.

Turning to `C=CC(=O)N1CCc2ccccc2[C@@H](c2ccccc2)C1` [Compound 139], the inhibition at 27 µM on SUMO E1 (30 min preincubation) is under 1%. Besides, at Atg7, the inhibition at 25 µM is under 1%.

Consider `C=CC(=O)N1CCc2ccccc2[C@@H](c2ccccc2)[C@H]1C` [Compound 140], for which the inhibition at 27 µM on SUMO E1 (30 min preincubation) is under 1%. Also, on Atg7, the inhibition at 25 µM was under 1%.

Regarding `O=C(/C=C/C(F)(F)F)N1Cc2sc(Cl)cc2[C@@H](c2ccccc2CC2CCOCC2)C1` [Compound 141], the inhibition at 1 µM at SUMO E1 (30 min preincubation) stood at 50%. Besides, at Atg7, the inhibition at 25 µM is under 1%.

As to `C=CC(=O)N1CCc2sc(Cl)cc2[C@@H](c2ccccc2)C1` [Compound 142], the inhibition at 9 µM at SUMO E1 (30 min preincubation) was 80%. The inhibition at 25 µM at Atg7 was under 1%.

For `Cc1ccccc1[C@H]1CN(C(=O)/C=C/C(F)(F)c2ccccn2)Cc2sc(Cl)cc21` [Compound 143], the inhibition at 27 µM on SUMO E1 (30 min preincubation) is under 1%. Further, at Atg7, the inhibition at 25 µM was under 1%.

`C=CC(=O)N1Cc2sc(Cl)cc2[C@@H](C2=CN(C)CC=C2)C1` [Compound 145]: the inhibition at 9 µM at SUMO E1 (30 min preincubation) is under 1%. At Atg7, the inhibition at 25 µM is under 1%.

For `C=CC(=O)N1Cc2sccc2[C@@H]([C@H]2CCCN(C)C2)C1` [Compound 146], the inhibition at 9 µM at SUMO E1 (30 min preincubation) was under 1%. The inhibition at 25 µM on Atg7 is under 1%.

With `C=CC(=O)N1Cc2sc(Cl)cc2[C@@H]([C@H]2CCCN(C)C2)C1` [Compound 147], the inhibition at 9 µM at SUMO E1 (30 min preincubation) was under 1%. Further, the inhibition at 25 µM at Atg7 was under 1%.

With `C=CC(=O)N1Cc2sc(Cl)cc2[C@@H](c2ccco2)C1` [Compound 148], on SUMO E1 (30 min preincubation), the inhibition at 9 µM is under 1%. Further, the inhibition at 25 µM on Atg7 was under 1%.

Consider `C=CC(=O)N1Cc2sc(Cl)c(F)c2[C@@H](c2ccccc2C)C1` [Compound 150], for which, at SUMO E1 (22 uM compound, 30 min preincubation), the inhibition at 22 µM is 50%. Also, on Atg7, the inhibition at 25 µM was under 1%.

For the compound `C=CC(=O)N1Cc2sc(Cl)cc2[C@@H](c2ccccc2OCCN(C)C)C1` [Compound 151], the inhibition at 6 µM at SUMO E1 (15 min preincubation) is under 1%. In addition, the inhibition at 25 µM at Atg7 was under 1%.

As for `C=CC(=O)N1Cc2sc(Cl)cc2[C@@H](c2ccccc2OCCCN(C)C)C1` [Compound 152], the inhibition at 6 µM on SUMO E1 (15 min preincubation) is under 1%. Further, at Atg7, the inhibition at 25 µM is under 1%.

On to `C=CC(=O)N1Cc2sc(Cl)cc2[C@@H](c2ccccc2OCCCN2CCCC2)C1` [Compound 153], for which, at SUMO E1 (15 min preincubation), the inhibition at 6 µM is under 1%. Also, the inhibition at 25 µM on Atg7 was under 1%.

For `C=CC(=O)N1Cc2sc(Cl)cc2[C@@H](c2csc3ccccc23)C1` [Compound 154], the inhibition at 18 µM at SUMO E1 (18 uM compound, 15 min preincubation) was under 1%. Further, on Atg7, the inhibition at 25 µM is under 1%.

The inhibition is the relative decrease from the control value, in per cent.
